Patent publication US8058309B2, “Protein kinase modulators and therapeutic uses thereof” (Novotyr Therapeutics Ltd., priority 2006, dated 2011)
Like-named read-outs stand apart in the source and are kept apart here.

What was measured:
PC3 [1] = experiment: Clonogenic assay PC3; format: cell-based; conditions: Homo sapiens, PC-3, Prostate
Protocol: (§1) Various cancer cells (listed in table 1) were seeded at a very low concentration (19 cells/well in 96-well plates or 63 cells/well in 24-well plates) in growth medium. A day later medium was replaced with growth medium containing various concentrations of inhibitors in a final concentration of 0.1% DMSO. The inhibitor-containing medium was refreshed three times a week. Following approximately two weeks cells were fixed by adding Gluteraldehide (0.5% final concentration) for 10 min, washed three time with DDW, once with borate buffer 0.1M and stained for 1 hour with 1% Methylene Blue in borate buffer 0.1M. Access stain was washed with water, and following drying colonies were counted. Alternatively, stain was extracted by 0.1N HCl for 1 hour and absorbance at 620 nm was measured by ELISA Reader. The assays were performed in triplicates. The values in table 1 represent IC50 values derived from the dose-dependent growth curves obtained.

A2780 = experiment: Clonogenic assay A2780; format: cell-based; conditions: Homo sapiens, Ovarian
Protocol: as §1

HT29 [2] = experiment: Clonogenic assay HT29; format: cell-based; conditions: Homo sapiens, HT-29, Colon
Protocol: as §1

PC3 [3] = experiment: Proliferation assay PC3; format: cell-based, human; conditions: Prostate
Protocol: (§2) Various cancer cell lines (listed in table 1) were plated at a density of 1000-5000 cells/well in 96-well plates in 90111 growth medium containing 10% FCS, 100 units/ml penicillin and 100 μg/ml streptomycin. Inhibitors were added a day later in 10 μl of 1% DMSO in DDW to obtain final concentrations of 0, 0.1, 0.3, 1, 3, and 10 μM. The final concentration of DMSO (0.1% DMSO) was kept constant in all samples. Medium with inhibitors was refreshed a day and two days later. Following exposure of the cells to the inhibitors for 72 hours at 37° C., the cells were fixed in 0.5% gluteraldehyde in medium for 10 min, washed three times with DDW, once with 0.1M sodium borate buffer pH 8.5 and stained with 1% methylene blue dissolved in 0.1M borate buffer solution for 60 min. Excess dye was washed out and cell-bound dye was eluted with 200 μl/well of 0.1 M HCl. The optical density value was read at 620 nm in ELISA plate reader. The data was analyzed in Microsoft Excel, using the vehicle control as 100% proliferation. The assays were performed in triplicates. The values in table 1 represent IC50 values derived from the dose-dependent growth curves obtained.
(§3) Compounds 6, 7, 8, and 9 were tested for their inhibitory potential in cell proliferation assay. In this assay cells were exposed to increasing concentrations of the molecules (at 0.1% DMSO in all wells) a day after seeding. Medium and inhibitors were refreshed every day, and following three days of treatment, cells were fixed and stained with methylene-Blue. IC50 values were determined from the curves of the optical density against compound concentration. The assay was performed in triplicates.

DU145 = experiment: Proliferation assay DU145; format: cell-based; conditions: Homo sapiens, DU-145, Prostate, 72 hours
Protocol: as §2, §3

LNCaP = experiment: Proliferation assay LNCaP; format: cell-based; conditions: Homo sapiens, Prostate, 72 hours
Protocol: as §2, §3

OVCAR3 = experiment: Proliferation assay OVCAR3; format: cell-based; conditions: Homo sapiens, OVCAR-3, Ovarian, 72 hours
Protocol: as §2, §3

Colo-205 = experiment: Proliferation assay Colo-205; format: cell-based; conditions: Homo sapiens, Colon, 72 hours
Protocol: as §2, §3

HT29 [4] = experiment: Proliferation assay HT29; format: cell-based; conditions: Homo sapiens, HT-29, Colon, 72 hours
Protocol: as §2, §3

QG56 = experiment: Proliferation assay QG56; format: cell-based; conditions: Homo sapiens, QG-56, Lung, 72 hours
Protocol: as §2, §3

PC-10 = experiment: Proliferation assay PC-10; format: cell-based; conditions: Homo sapiens, PC10, Lung, 72 hours
Protocol: as §2, §3

SKBR-3 = experiment: Proliferation assay SKBR-3; format: cell-based; conditions: Homo sapiens, SK-BR-3, Breast, 72 hours
Protocol: as §2, §3

YUMAC = experiment: Proliferation assay YUMAC; format: cell-based; conditions: Homo sapiens
Protocol: as §2, §3

T24P = experiment: Proliferation assay T24P; format: cell-based; conditions: Bladder, 72 hours
Protocol: as §2, §3

1376 = experiment: Proliferation assay 1376; format: cell-based; conditions: Bladder, 72 hours
Protocol: as §2, §3

AsPC1 = experiment: Proliferation assay AsPC1; format: cell-based; conditions: Homo sapiens, Pancreatic, 72 hours
Protocol: as §2, §3

BAF3 Bcr-Abl = experiment: Proliferation assay BAF3 Bcr-Abl; format: cell-based; conditions: Mus musculus, Pro B, 72 hours
Protocol: as §2, §3

K562 = experiment: Proliferation assay K562; format: cell-based; conditions: Homo sapiens, Leukemia, 72 hours
Protocol: as §2, §3

U266 = experiment: Proliferation assay U266; format: cell-based; conditions: Homo sapiens, U-266, Myeloma, 72 hours
Protocol: as §2, §3

A2780 tumors = experiment: Ovarian cancer A2780 xenograft tumor growth; format: in vivo, nude mice; conditions: for Inhibition of ovarian tumor growth, comparative study: A2780, IP once a day, 20 mg/kg (FIG. 13); for Growth inhibition of ovarian cancer A2780 tumors / Growth inhibition of ovarian A2780 tumors: IP, 1/day; for Growth inhibition of ovarian cancer A2780 tumors: 20 mg/kg (FIG. 12); for Growth inhibition of ovarian A2780 tumors: 50 mg/kg
Protocol: Human hormone-refractory prostate cancer PC3 cells (ATCC, 1.5×10^6 cells per mouse) were injected subcutaneously into the right leg of Nude:Hsd mice (purchased from Harlan). Ten days later, when palpable tumors had developed, mice were divided into 3 groups with similar average tumor size. […] The mice treated with compound 7 group were daily injected with compound 7 dissolved in the below described vehicle, and the vehicle-treated group (veh) was daily injected by the vehicle alone. Vehicle included 4.4% DMSO, 1.2% Ethanol and 50% PEG400 in DDW; Groups were composed of 3 mice per group. Dose administered IP was 50 mg/Kg (4 ml/Kg) once a day for one month. The length (l) and the width (w) of the tumors were measured every day and the volumes of the tumors were calculated as follows: v=1w^2/2. Graphs present average volumes of the tumors versus time in days. The procedure was followed for the other described in-vivo studies with the following modifications:
Human ovary cancer A2780 cells (from ECACC, 2×10^6 cells per mouse) were injected subcutaneously into the right leg of female Nude:Hsd mice (purchased from Harlan). Inhibitors were injected IP daily at doses of 20 mg/kg (Exp. 2&3) or 50 mg/kg (Exp. 4) dissolved in 4.4% DMSO, 0.12% EtOH, 50% PEG-400 in DDW at volume of 4 ml/kg. The Veh group received 4.4% DMSO, 0.12% EtOH, 50% PEG-400 in DDW at volume of 4 ml/kg.

B16 = experiment: Clonogenic assay B16; format: cell-based; conditions: Mus musculus, Melanoma
Protocol: as §1

[5] = Melanoma, YUMAC, 72 hours, read-out: Proliferation assay IC50
[6] = Table 4, 72 hours incubation, read-out: Inhibition of human metastatic melanoma cells, YUMAC IC50

IC50 (PC3 [1]) [µM] | IC50 (A2780) [µM] | IC50 (HT29 [2]) [µM] | IC50 (PC3 [3]; Homo sapiens, PC-3, 72 h) [µM] | IC50 (DU145) [µM] | IC50 (LNCaP) [µM] | IC50 (OVCAR3) [µM] | IC50 (Colo-205) [µM] | IC50 (HT29 [4]) [µM] | IC50 (SKBR-3) [µM] | IC50 (T24P) [µM] | IC50 (AsPC1) [µM] | IC50 (BAF3 Bcr-Abl) [µM] | IC50 (K562) [µM] | IC50 (U266) [µM] | SMILES | IC50 (QG56) [µM] | IC50 (PC-10) [µM] | IC50 (YUMAC; [5]) [µM] | IC50 (YUMAC; [6]) [µM] | IC50 1376 [µM] | also measured
1.2 | 0.3 | 1.6 | 2.7 | 1.8 | 4.7 | 0.9 | 1.7 | 1.5 | 6 | 1.4 | > 10 | 6.1 | > 10 | 0.9 | Oc1cc(CNC(=S)/C=C/c2cc(O)c(O)c(Br)c2)cc(O)c1O [Compound 9] | 2 | 3.8 | 0.6 | 0.6 | 1.4 | IC50 (PC3 [3]; 72 hours): 2 µM; Inhibition of ovarian tumor growth, comparative study (A2780 tumors): approximately 90%
4.2 | 0.4 | 2.8 | 2.8 | 6.6 | > 10 | 2 | 5.4 | 6.8 | 9.9 | 1.2 | > 10 | 8.2 | ~10 | 0.8 | N#C/C(=C\c1cc(O)c(O)c(Br)c1)C(=S)NCc1cc(O)c(O)c(O)c1 [Compound 7] | 5.2 | 5.2 | 1.2 | 1.2 | 0.9 | IC50 (B16): 0.4 µM; IC50 (PC3 [3]; 72 hours): 3.9 µM; Inhibition of ovarian tumor growth, comparative study (A2780 tumors): approximately 90%; Growth inhibition of ovarian cancer A2780 tumors (A2780 tumors): 87%
0.7 | 0.1 | 9.5 | > 10 | > 10 | > 10 | > 10 | > 10 | > 10 | > 10 | > 10 | > 10 | 7.7 | > 10 | 9.8 | N#C/C(=C\c1cc(O)c(O)c(Br)c1)C(=S)NCc1cc(O)c(O)c(Br)c1 [Compound 6] | > 10 | > 10 | 8.5 | 8.5 | 2.5 | IC50 (B16): 0.8 µM; Inhibition of ovarian tumor growth, comparative study (A2780 tumors): 33%
1 | 0.4 | 5.6 | 4.6 | 6.5 | 7.7 | 1.9 | 2.5 | 6.1 | 9 | 0.9 | 9.5 | > 10 | ~10 | 0.8 | N#C/C(=C\c1cc(O)c(O)c(I)c1)C(=S)NCc1cc(O)c(O)c(O)c1 [Compound 8] | 4.4 | 5.8 | 1.2 | 1.2 | 0.8 | IC50 (B16): 0.4 µM; IC50 (PC3 [3]; 72 hours): 3.6 µM; Inhibition of ovarian tumor growth, comparative study (A2780 tumors): approximately 90%; Growth inhibition of ovarian cancer A2780 tumors (A2780 tumors): 87%; Growth inhibition of ovarian A2780 tumors (A2780 tumors; tumors larger than 50 mm^3 at start): 82%; Growth inhibition of ovarian A2780 tumors (A2780 tumors; tumors larger than 470 mm^3 at start): approximately 85%
